Reference: patent US5059692A, “Novel compounds exhibiting a vasodilating activity and inhibitory activity for platelet aggregation” (priority 1989, dated 1991)

Legend:
[1] = tested on: rabbit mesenteric artery; assay: Vasorelaxant Effect (V.R., ED50), KCl-precontracted mesenteric artery strips; details: Oryctolagus cuniculus; rabbit superior mesenteric artery helical strips, precontracted with 20 mM KCl, 37°±0.5° C., cumulative addition
Protocol: Vasorelaxant Effect (V.R., ED50)
Male albino rabbits were killed by exanguination.
The vascular strips were vertically suspended in an organ bath filled with a Krebs-Henseleit solution the temperature of which was maintained at 37°±0.5° C. A mixture of 95% O2 -5% CO2 was constantly bubbled through the bicarbonate-based solution in the organ bath. Mechanical responses of the rabbit mesenteric artery evoked by a high concentration of KCl were measured isometrically using the force-displacement transducer.
After obtaining a reproducible response to KCl, the preparations were precontracted with 20 mM KCl and then relaxed by the cumulative addition of the compounds. The ED50 value was read from a plot of the percentage of the relaxing response (maximum contractile response to KCl was taken as 100%) vs. the log concentration of the compounds.

[2] = tested on: washed platelets; assay: Inhibition of Platelets Aggregation (P.A.IC50), collagen-induced, washed platelets, turbidmetric method; assay type: cell-based; details: Platelet, human washed platelets, 37° C., 2 min preincubation
Protocol: Inhibition of Platelets Aggregation (P.A.IC50)
Preparation of washed platelets (centrifugation method) Blood drawn from healthy human volunteers was anticoagulated with 1/10 volume of 0.38% sodium citrate. Platelets-rich plasma (PRP) was obtained by centrifugation of whole blood at 700× G for 10 minutes. The resulting PRP was then centrifuged at 1500× G for 10 minutes in the presence of 1/6 volume of ACD solution (2.2% of sodium citrate, 0.8% of citric acid and 2.2% of glucose), and the pellet was suspended with the modified HEPES-Tyrode solution (135 mM NaCl, 2.7 mM KCl, 1 mM MgCl2, 0.1% glucose, and 20 mM HEPES; pH 7.4).
After the platelet suspension was centrifuged again at 1500× G for 5 minutes with 1/6 volume of the ACD solution, the pellet was resuspended with the modified HEPES-Tyrode solution. Then the washed platelet suspension (=300,000 platelets/μl) was obtained.
Measurement of Platelet Aggregation (Turbidmetric Method)
Platelet aggregation was studied by the turbidmetric method with an 4 ch. aggregometer (HEMA tracer 601; Nikoh Bioscience Co., Japan). Test sample (3 μl, appropriate concentration) or vehicle (3 μl) was added to 270 μl of the platelet suspension and incubated at 37° C. with stirring for 2 minutes before the addition of 30 μl collagen ([…]).
Estimation of Inhibitory Action
The extent of aggregation was expressed by the maximum change of light transmission expressed as a percentage, taking the difference between light transmission for the platelet suspension and platelet-poor-plasma as a value of 100%. Percent inhibition of aggregation by a test compound was calculated by dividing the percent aggregation by that observed in the control run, then multiplying by 100. IC50 values were expressed as the concentrations of test compounds which produced 50% inhibition of the platelet aggregation.

Row | EC50 [1] | IC50 [2] | SMILES
1 | 74 µM | 100 µM | COC(=O)c1sc2c(c1N=CN(C)C)c1ccccc1c(=O)n2-c1ccccc1 [compound 7, Methyl 1-dimethylaminomethyleneamino-4,5-dihydro-5-oxo-4-phenyl-thieno[2,3-c]isoquinoline-2-carboxylate]
2 | – | 0.26 µM | COC(=O)c1sc2c(c1N)c1ccsc1c(=O)n2-c1ccccc1 [compound 3, Methyl 1-amino-4,5-dihydro-5-oxo-4-phenyl-dithieno[2,3-b:3',2'-d]pyridine-2-carboxylate]
3 | 5.7 µM | 0.1 µM | COC(=O)c1sc2c(c1N)c1ccccc1c(=O)n2-c1ccccc1Cl [compound 4, Methyl 1-amino-4-(2-chlorophenyl)-4,5-dihydro-5-oxo-thieno[2,3-c]isoquinoline-2-carboxylate]
4 | 8 µM | 0.31 µM | COC(=O)c1sc2c(c1N)-c1ccccc1CN2c1ccccc1 [compound 10, Methyl 1-amino-4,5-dihydro-4-phenyl-thieno[2,3-c]isoquinoline-2-carboxylate]
5 | 1.6 µM | – | COC(=O)c1sc2c(c1N=CN(C)C)c1ccccc1c(=O)n2-c1ccccc1C [compound 8, Methyl 1-dimethylaminomethyleneamino-4,5-dihydro-4-(2-methylphenyl)-5-oxo-thieno[2,3-c]isoquinoline-2-carboxylate]
6 | 4.6 µM | 0.56 µM | COC(=O)c1sc2c(c1N)c1ccccc1c(=O)n2-c1ccccc1C [compound 2, Methyl 1-amino-4,5-dihydro-4-(2-methylphenyl)-5-oxo-thieno[2,3-c]isoquinoline-2-carboxylate]
7 | 1.1 µM | 100 µM | COC(=O)c1sc2c(c1N=C1CCCN1C)c1ccccc1c(=O)n2-c1ccccc1C [compound 9, Methyl 4,5-dihydro-4-(2-methylphenyl)-1-(1-methyl-2-pyrrolidinylideneamino)-5-oxo-thieno[2,3-c]isoquinoline-2-carboxylate]
8 | 20 µM | 0.023 µM | COC(=O)c1sc2c(c1N)c1ccccc1c(=O)n2-c1ccccc1 [compound 1, Methyl 1-amino-4,5-dihydro-5-oxo-4-phenyl-thieno[2,3-c]isoquinoline-2-carboxylate]
